Source: US10899763B2, “Crystalline forms of salts of fused penta-cyclic dihydrodiazepinocarbazolones, and uses thereof” (BEIGENE, LTD., priority 2017, dated 2021)
Read-outs that look alike come from different tables or passages of the source.

Assays:
[1] = test system: H209 SCLC xenograft; test: H209 SCLC xenograft model, combination with TMZ; type: in vivo, mouse; conditions: combination of Compound 1 and TMZ, multiple cycles
From the text: (§1) The in vivo efficacy of Compound 1 was explored in H209 SCLC xenograft model to evaluate the combination effect of Compound 1 and Temozolomide (TMZ), a DNA alkylating agent. TMZ single agent was quite effective in this model. […] However, resistance occurred quickly during the second cycle. […] In order to investigate whether Compound 1 could overcome the TMZ resistance, TMZ-resistant (TR) H209 tumors were generated by treating the H209 tumors with multiple cycles of TMZ in vivo. […] Mice with established intracranial H209 xenografts were used to further investigate the combination activity of Compound 1 and TMZ on SCLC in brain.

[2] = Phase I clinical safety study; type: in vivo; conditions: BRCA1/2 mutant ovary cancer patients
[3] = Metabolism in mouse liver microsomes; type: in vitro ADME
[4] = test system: TMZ-resistant (TR) H209 tumors; test: TMZ-resistant H209-TR xenograft mouse model; type: in vivo; conditions: combination of Compound 1 and TMZ
From the text: as §1

[5] = Plasma protein binding, rat plasma; type: in vitro ADME
[6] = Nonclinical toxicity, single and repeat dose up to 28 days, dogs; type: in vivo
[7] = Ames assay; type: cell-based
[8] = Tissue distribution and excretion after oral administration in rats; type: in vivo
Method: After oral administration in rats, Compound 1 was detected in all organs checked. The drug concentrations reached maximum at 0.25 to 1 hour post-dosing and decreased to less than 10% of the peak concentration at 24 hours post-dosing.
Compound 1 was primarily excreted in feces. The accumulative excretion amounts of Compound 1 in feces were 15% to 20% (up to 48 hours) after oral administration. Less than 1% of Compound 1 was excreted in urine and bile in rats.

[9] = Pharmacokinetics in rat; type: in vivo
Method: (§2) The species used for the pharmacokinetic studies were rat and dog. Compound 1 had good to excellent oral bioavailability (>40%) in both species. Elimination half-lives ranged from 3.1 to 5.0 hours in rats and 1.5 to 2.5 hours in dogs after oral administration. […] Steady state volume of distribution in rats and dogs was 2.4 L/kg and 1.9 L/kg, respectively.

[10] = test system: human CYP1A2; test: CYP induction, CYP1A2; type: in vitro ADME
[11] = test system: CYP isoform; test: CYP isoforms responsible for metabolism; type: in vitro ADME
[12] = test system: CYP3A; test: CYP induction, CYP3A; type: in vitro ADME, human
[13] = Metabolism in human liver microsomes; type: in vitro ADME
[14] = test system: PARP; conditions: for PARylation inhibition in tumor: 5.45 mg/kg single oral dose
[15] = Metabolism in rat liver microsomes; type: in vitro ADME
[16] = test system: intracranial H209 xenografts; test: Intracranial H209 xenograft model; type: in vivo, Mice; conditions: addition of Compound 1 to TMZ
From the text: as §1

[17] = Nonclinical toxicity, single and repeat dose up to 28 days, rats; type: in vivo
[18] = Metabolism in monkey liver microsomes; type: in vitro ADME
[19] = Pharmacokinetics in dog; type: in vivo
Method: as §2

[20] = Brain penetration; conditions: in vivo
[21] = test system: CYP2B6; test: CYP induction, CYP2B6; type: in vitro ADME, human
[22] = Metabolism in dog liver microsomes; type: in vitro ADME
[23] = test system: BRCA1 mutation breast cancer xenograft; test: BRCA1 mutation breast cancer xenograft model; type: in vivo; conditions: at much lower dose than olaparib
[24] = test system: MDA-MB-231 cells; test: Synthetic lethality, CellTiter-Glo cell viability, MDA-MB-231; type: cell-based; conditions: Homo sapiens; MDA-MB-231, BRCA wildtype; read-out: EC50
Method: MDA-MB-231 cells that is not BRCA gene mutant or other homologous recombination deficient were maintained in DMEM supplemented with fetal bovine serum (10% FBS), 100 units/ml penicillin and 0.1 mg/ml streptomycin. BRCA1-deficient cell line MDA-MB-436 was maintained in RPMI-1640 supplemented with 10% FBS, 100 units/ml penicillin and 0.1 mg/ml streptomycin. Both two cell lines were kept at 95% humidity and 5% CO2 in a 37° C. incubator.
The number of tumor cells seeded per well of a 96-well plate was optimized for each cell line to ensure logarithmic growth over the 7 days treatment period. Cells were left to attach for 16 hours and then treated with specific concentrations of test compounds. Following a 7-day exposure to the compound, the growth-inhibitory activity of compounds was determined using CellTiter-Glo luminescent cell viability assay (Promega). Luminescent signal was measured using PHERAstar FS reader (BMG Labtech). Cell viability was expressed as relative to mock treatment control. EC50 values for growth inhibition were calculated by fitting dose-dependent data to the four-parameter logistic model using XLfit software.

Q: For `C[C@]12CCCN1CC1=NNC(=O)c3cc(F)cc4[nH]c2c1c34` [Compound 1, (R)-2-fluoro-10a-methyl-7,8,9,10,10a,11-hexahydro-5,6,7a,11-tetraazacyclohepta[def]cyclopenta-[a]fluoren-4(5H)-one], which “effect of combination with TMZ on resistance” value [1] is on record?
A: significantly delayed resistance without additional toxicity

Q: What about the clinical response [2] of the same compound?
A: partial or complete responses

Q: What about the “metabolism rate in liver microsomes” value [3] of the same compound?
A: metabolized slowly

Q: What about the “sensitivity of H209-TR lines to combination with TMZ” value [4] of the same compound?
A: remained sensitive

Q: What about the “Plasma protein binding (PPB)” value [5] of the same compound?
A: 84.9%

Q: And the reversibility of toxicity [6]?
A: reversible after 28-day recovery phase

Q: And the “major target organ of toxicity” value ([6]; up to 28 days)?
A: bone marrow

Q: What about the mutagenicity [7] of the same compound?
A: No mutagenicity

Q: And the “excreted in urine and bile” value [8]?
A: Less than 1%

Q: What about the “drug concentration in organs as % of the peak concentration” value ([8]; oral, 24 hours post-dosing) of the same compound?
A: less than 10%

Q: What about the “accumulation following multiple oral dosing” value [9] of the same compound?
A: no accumulation

Q: What about the “induction of human CYP1A2” value [10] of the same compound?
A: not an inducer

Q: And the “major CYP isoform responsible for metabolism” value [11]?
A: CYP3A

Q: What about the “induction of human CYP3A” value [12] of the same compound?
A: not an inducer

Q: What about the “metabolism rate in liver microsomes” value [13] of the same compound?
A: metabolized slowly

Q: What about the “PARylation inhibition in tumor” value ([14]; 0.5 hour after treatment) of the same compound?
A: 98%

Q: And the “PARylation inhibition in tumor” value ([14]; at 24 hours)?
A: 53%

Q: And the “PARylation inhibition in tumor” value ([14]; through the first 12 hours)?
A: > 80%

Q: And the “single oral dose at which potent inhibition of PARylation was observed” value ([14]; at 4 hours after single oral dose)?
A: ≥ 0.34 mg/kg

Q: What about the “concentration in tumor tissues needed to achieve at least 80% PARylation inhibition” value ([14]; dose titration and time course study) of the same compound?
A: over 0.5 μmol/kg

Q: What about the “metabolism rate in liver microsomes” value [15] of the same compound?
A: metabolized slowly

Q: And the “animal survival compared to TMZ single agent” value [16]?
A: significantly prolonged animal survival

Q: What about the reversibility of toxicity [17] of the same compound?
A: reversible after 28-day recovery phase

Q: What about the “major target organ of toxicity” value ([17]; up to 28 days) of the same compound?
A: bone marrow

Q: And the “metabolism rate in liver microsomes” value [18]?
A: quickly

Q: And the “accumulation following multiple oral dosing” value [19]?
A: no accumulation

Q: What about the brain penetration [20] of the same compound?
A: significant brain penetration

Q: And the “induction of human CYP2B6” value [21]?
A: not an inducer

Q: What about the “metabolism rate in liver microsomes” value [22] of the same compound?
A: metabolized slowly

Q: And the tumor regression [23]?
A: significantly induces tumor regression

Q: What about the EC50 [24] of the same compound?
A: ~9 µM
